Measured values published in patent US20040087629A1, “Tartrate salts of thiazolidinedione derivative” (priority 2003, published 2004).
Like-named read-outs stand apart in the source and are kept apart here.

Conditions: 1 month, product of Example 4

Structure (SMILES): CN(CCOc1ccc(CC2SC(=O)NC2=O)cc1)c1ccccn1.O=C(O)C(O)C(O)C(=O)O [L(+) Tartrate, 5-[4-[2-(N-methyl-N-(2-pyridyl)amino)ethoxy]benzyl]thiazolidine-2,4-dione L-(+)-tartrate]
- HPLC assay (final content) (40° C./75% Relative Humidity (RH), open exposure): 97 % initial
- HPLC assay (final content) (50° C., closed): 98 % initial
